# Measured values published in ChEMBL document CHEMBL5465560, “Selectivity Literature for EUbOPEN Chemogenomic Library” (2024).
# Columns and labels:
# [1] = target: T1, Serine/threonine-protein kinase BRSK2 (Homo sapiens) (UniProt Q8IWQ3); assay: Selectivity interaction (KinomeScan (DiscoverX)) EUB0000229b BRSK2; conditions: at 10 µM
# T1 sequence (whole entry): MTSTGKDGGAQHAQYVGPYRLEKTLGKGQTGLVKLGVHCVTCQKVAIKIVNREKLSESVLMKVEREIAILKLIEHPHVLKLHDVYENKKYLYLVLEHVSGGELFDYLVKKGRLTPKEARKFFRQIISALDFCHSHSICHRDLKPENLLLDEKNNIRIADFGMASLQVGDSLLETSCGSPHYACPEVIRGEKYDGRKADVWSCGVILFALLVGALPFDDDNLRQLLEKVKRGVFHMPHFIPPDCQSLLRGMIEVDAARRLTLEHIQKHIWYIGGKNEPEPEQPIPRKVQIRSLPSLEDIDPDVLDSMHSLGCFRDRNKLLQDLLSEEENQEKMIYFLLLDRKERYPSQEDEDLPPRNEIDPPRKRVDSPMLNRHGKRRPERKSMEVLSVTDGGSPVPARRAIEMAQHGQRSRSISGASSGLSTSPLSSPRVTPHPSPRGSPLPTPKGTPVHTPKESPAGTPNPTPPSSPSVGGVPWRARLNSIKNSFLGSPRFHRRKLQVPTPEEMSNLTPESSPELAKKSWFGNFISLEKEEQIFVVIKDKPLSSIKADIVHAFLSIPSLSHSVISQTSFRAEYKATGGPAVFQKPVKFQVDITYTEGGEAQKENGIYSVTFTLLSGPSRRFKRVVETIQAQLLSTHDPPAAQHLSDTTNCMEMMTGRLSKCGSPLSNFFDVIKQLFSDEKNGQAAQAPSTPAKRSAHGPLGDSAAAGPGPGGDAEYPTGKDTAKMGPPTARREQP
# [2] = target: Serine/threonine-protein kinase Chk2 (Homo sapiens) (UniProt O96017); assay: Selectivity interaction (KinomeScan (DiscoverX)) EUB0001079a CHEK2; conditions: at 1 µM
# [3] = target: T2, Mitogen-activated protein kinase kinase kinase 6 (Homo sapiens) (UniProt O95382); assay: Selectivity interaction (ActivX KiNativ screen (kinase selectivity in THP-1 cell lysates)) EUB0000639a MAP3K6; format: subcellular; conditions: lysate, at 0.01 µM
# T2 sequence (whole entry): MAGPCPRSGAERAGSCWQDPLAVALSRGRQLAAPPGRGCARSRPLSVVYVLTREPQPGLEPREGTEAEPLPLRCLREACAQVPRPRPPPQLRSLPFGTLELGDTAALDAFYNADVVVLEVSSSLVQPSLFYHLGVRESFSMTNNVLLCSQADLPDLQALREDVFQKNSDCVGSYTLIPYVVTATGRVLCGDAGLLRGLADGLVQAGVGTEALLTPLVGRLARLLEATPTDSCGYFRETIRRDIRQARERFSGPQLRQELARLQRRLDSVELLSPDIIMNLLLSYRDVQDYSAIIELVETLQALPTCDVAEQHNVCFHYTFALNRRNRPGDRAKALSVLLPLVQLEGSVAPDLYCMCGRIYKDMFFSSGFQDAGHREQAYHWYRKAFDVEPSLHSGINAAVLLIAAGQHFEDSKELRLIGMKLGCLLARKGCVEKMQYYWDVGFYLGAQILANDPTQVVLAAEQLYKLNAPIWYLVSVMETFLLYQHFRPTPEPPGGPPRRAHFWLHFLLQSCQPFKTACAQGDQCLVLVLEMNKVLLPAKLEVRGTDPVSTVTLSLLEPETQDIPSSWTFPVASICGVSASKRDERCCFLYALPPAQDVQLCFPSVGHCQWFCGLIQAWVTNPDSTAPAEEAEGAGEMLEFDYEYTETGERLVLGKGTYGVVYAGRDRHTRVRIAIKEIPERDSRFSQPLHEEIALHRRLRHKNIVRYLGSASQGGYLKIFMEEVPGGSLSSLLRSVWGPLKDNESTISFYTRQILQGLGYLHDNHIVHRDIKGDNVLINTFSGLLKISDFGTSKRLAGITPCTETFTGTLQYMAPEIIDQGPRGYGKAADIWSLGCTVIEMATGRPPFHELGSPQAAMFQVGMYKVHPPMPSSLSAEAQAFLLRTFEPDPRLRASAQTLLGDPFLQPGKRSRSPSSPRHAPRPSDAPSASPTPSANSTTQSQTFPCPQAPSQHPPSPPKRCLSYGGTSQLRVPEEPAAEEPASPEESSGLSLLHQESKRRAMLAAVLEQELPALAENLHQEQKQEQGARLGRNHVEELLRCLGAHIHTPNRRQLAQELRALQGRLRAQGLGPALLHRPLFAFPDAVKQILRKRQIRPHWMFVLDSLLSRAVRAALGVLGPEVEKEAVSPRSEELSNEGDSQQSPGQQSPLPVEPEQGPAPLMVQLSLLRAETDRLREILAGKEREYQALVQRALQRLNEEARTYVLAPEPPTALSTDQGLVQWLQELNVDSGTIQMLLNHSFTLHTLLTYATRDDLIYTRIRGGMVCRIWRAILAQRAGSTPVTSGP
# [4] = target: Serine/threonine-protein kinase SIK2 (Homo sapiens) (UniProt Q9H0K1); assay: Selectivity interaction (Ambit KINOMEscan and KiNATiv profiling in Jurkat cells) EUB0000090b SIK2; format: cell-based; conditions: at 1 µM
# [5] = target: T3, Inhibitor of nuclear factor kappa-B kinase subunit alpha (Homo sapiens) (UniProt O15111); assay: Selectivity interaction (KinomeScan (DiscoverX)) EUB0000045b CHUK
# T3 sequence (whole entry): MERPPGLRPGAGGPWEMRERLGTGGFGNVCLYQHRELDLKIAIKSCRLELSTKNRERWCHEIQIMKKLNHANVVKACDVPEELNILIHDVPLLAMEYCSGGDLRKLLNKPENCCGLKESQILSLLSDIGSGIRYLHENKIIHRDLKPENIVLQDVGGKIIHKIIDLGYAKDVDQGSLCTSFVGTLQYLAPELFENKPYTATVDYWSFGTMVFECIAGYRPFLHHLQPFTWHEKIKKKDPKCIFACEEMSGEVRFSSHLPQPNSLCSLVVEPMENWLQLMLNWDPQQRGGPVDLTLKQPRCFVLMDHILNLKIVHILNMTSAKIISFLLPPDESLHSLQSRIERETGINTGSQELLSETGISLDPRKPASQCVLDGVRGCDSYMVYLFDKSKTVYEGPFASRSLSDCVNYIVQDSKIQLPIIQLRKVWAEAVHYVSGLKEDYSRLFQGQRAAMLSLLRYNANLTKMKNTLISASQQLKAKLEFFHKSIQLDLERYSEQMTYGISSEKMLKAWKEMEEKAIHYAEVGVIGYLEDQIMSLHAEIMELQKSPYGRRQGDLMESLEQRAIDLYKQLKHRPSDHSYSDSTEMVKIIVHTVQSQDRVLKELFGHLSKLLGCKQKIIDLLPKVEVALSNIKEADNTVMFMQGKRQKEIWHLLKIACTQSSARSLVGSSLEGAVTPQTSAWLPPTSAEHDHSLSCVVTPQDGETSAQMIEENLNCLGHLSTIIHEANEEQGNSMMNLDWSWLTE
# [6] = target: Activin receptor type-2B (Homo sapiens) (UniProt Q13705); conditions: at 10 µM
# Sequence of Activin receptor type-2B (Homo sapiens) (Q13705 whole entry): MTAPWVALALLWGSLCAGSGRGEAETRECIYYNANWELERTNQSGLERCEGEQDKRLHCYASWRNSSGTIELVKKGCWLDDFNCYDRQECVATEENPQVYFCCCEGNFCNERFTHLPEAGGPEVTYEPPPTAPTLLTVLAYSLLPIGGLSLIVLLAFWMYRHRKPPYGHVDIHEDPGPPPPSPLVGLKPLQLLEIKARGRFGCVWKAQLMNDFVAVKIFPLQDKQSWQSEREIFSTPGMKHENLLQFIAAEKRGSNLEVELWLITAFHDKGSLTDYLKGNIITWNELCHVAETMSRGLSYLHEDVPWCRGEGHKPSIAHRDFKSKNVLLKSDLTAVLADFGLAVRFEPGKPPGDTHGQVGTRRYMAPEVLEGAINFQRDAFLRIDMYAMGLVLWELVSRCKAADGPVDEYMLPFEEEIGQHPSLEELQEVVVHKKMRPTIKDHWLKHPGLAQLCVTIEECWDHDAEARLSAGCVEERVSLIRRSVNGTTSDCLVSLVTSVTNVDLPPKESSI
# Sequence of Serine/threonine-protein kinase SIK2 (Homo sapiens) (Q9H0K1 whole entry, looked up): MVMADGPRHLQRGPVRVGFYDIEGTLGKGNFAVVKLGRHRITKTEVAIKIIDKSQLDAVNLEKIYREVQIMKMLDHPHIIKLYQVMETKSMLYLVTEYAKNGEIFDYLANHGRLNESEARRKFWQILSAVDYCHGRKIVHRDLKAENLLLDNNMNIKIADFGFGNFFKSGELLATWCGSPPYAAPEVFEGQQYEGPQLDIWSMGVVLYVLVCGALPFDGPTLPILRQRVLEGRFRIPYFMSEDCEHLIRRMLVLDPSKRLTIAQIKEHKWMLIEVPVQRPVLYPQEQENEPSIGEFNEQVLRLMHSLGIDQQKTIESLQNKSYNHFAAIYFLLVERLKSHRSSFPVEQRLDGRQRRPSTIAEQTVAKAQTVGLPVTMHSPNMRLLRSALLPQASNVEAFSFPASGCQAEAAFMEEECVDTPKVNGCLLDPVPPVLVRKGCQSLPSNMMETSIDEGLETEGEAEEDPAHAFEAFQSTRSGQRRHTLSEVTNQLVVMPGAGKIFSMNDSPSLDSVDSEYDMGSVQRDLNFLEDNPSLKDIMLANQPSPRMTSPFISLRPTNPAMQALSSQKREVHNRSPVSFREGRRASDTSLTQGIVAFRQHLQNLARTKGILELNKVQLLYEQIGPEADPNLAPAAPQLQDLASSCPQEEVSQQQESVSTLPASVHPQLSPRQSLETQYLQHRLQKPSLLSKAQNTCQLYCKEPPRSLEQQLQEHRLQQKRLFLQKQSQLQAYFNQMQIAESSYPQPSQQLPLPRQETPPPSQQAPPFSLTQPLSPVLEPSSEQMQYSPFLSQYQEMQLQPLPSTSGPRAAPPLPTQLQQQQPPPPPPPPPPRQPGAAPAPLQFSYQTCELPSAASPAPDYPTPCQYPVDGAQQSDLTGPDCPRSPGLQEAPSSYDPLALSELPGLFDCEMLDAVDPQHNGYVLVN
# Sequence of Serine/threonine-protein kinase Chk2 (Homo sapiens) (O96017 whole entry): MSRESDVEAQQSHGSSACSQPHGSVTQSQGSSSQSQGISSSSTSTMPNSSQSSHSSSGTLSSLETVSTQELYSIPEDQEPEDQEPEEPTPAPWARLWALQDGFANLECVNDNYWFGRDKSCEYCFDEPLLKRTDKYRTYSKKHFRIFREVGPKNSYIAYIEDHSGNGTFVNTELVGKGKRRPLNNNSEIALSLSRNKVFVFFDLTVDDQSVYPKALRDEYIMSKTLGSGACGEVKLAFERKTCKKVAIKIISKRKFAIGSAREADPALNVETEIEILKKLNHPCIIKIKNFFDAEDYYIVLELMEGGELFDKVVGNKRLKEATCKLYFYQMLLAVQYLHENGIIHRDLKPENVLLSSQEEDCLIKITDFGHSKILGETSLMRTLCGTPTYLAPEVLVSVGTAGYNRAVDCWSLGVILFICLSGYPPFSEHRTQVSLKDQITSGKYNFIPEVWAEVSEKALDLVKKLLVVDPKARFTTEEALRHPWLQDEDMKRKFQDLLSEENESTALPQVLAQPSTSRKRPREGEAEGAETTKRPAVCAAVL
compound,measurement,setting,value
COc1cc(N(C)c2ccnc3ccc(C(F)(F)F)cc23)cc(OC)c1OC,% binding,[1],90%
Nc1cnc(N2CCc3cc(S(=O)(=O)Nc4c(F)cc(Cl)cc4F)cc(N4CCCC4=O)c32)nc1 [TP-020n],% of control,[2],92%
CC[C@@H]1[C@H](F)C(=O)N[C@@H]1COc1nccc2cc(C(N)=O)c(OC)cc12 [ZIMLOVISERTIB],% of inhibition,[3],3.1%
CN(C)C/C=C/C(=O)Nc1ccc(C(=O)N2CCCC(Nc3ncc(Cl)c(-c4c[nH]c5ccccc45)n3)C2)cc1 (configuration not stated),% of control,[4],93%
C=CC(=O)Nc1cc(-n2c(=O)ccc3cnc4ccc(-c5ccc(NS(C)(=O)=O)cc5)cc4c32)ccc1C,% of control,[5]; at 1 µM,100%
same,% of control,[5]; at 10 µM,100%
Cc1cc([C@@H](C)Nc2ccccc2C(=O)O)c2nc(N3CCOCC3)cc(=O)n2c1 [AZD-6482],% of control,[6],100%
